From publication PMC6445106, “Structural and biochemical evidence supporting poly ADP-ribosylation in the bacterium Deinococcus radiodurans” (Nature Communications, 2019)

Assays:
[1] = target: T1, DrPARG (Deinococcus radiodurans, UniProt Q9RZM4); assay: CD thermal denaturation at […] nm; assay type: binding; conditions: 10 µM protein, 30 µM ADP-ribose, 20 mM phosphate pH 7.5; printed as "increased Tm by 46.5 °C", read as Tm of complex
T1 construct: gene DR_B0099, pET28a, E. coli BL21(DE3); N-terminal His-tag cut with thrombin, GSHM left at N terminus; monomer, Mr 32 kDa; residues 100-110 GGGFLGGAQAQ
T1 sequence (Q9RZM4 1-285): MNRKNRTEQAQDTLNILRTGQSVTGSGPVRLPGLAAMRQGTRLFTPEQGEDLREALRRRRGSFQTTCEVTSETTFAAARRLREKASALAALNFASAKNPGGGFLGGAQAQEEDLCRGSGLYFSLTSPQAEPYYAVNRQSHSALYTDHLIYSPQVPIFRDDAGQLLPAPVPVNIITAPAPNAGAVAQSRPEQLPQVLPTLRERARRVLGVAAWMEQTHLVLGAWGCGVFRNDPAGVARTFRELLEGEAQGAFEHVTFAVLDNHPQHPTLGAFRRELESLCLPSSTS

[2] = target: T1, DrPARG; assay: isothermal titration calorimetry; conditions: 25 °C, 20 mM Tris-HCl pH 7.0, 100 mM NaCl; independent binding model; complex also as PDB 5ZDC, 5ZDD, 5ZDE
Description: (§1) isothermal titration calorimetry on DrPARG

[3] = target: T2, DrPARG (Deinococcus radiodurans, UniProt Q9RZM4, E112A); assay: isothermal titration calorimetry; conditions: 25 °C, 20 mM Tris-HCl pH 7.0, 100 mM NaCl; independent binding model
T2 construct: gene DR_B0099, pET28a, E. coli BL21(DE3); N-terminal His-tag cut with thrombin, GSHM left at N terminus; monomer, Mr 32 kDa; residues 100-110 GGGFLGGAQAQ
T2 sequence (Q9RZM4 entry or part of it E112A): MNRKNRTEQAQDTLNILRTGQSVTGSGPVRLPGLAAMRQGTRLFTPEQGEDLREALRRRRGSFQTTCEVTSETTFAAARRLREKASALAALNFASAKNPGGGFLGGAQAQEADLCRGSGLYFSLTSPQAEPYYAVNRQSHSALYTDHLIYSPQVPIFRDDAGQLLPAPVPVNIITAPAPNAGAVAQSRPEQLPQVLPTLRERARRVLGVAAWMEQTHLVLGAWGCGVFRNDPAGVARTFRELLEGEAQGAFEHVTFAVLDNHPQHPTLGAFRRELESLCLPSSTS
Description: as §1

[4] = target: T3, DrPARG (Deinococcus radiodurans, UniProt Q9RZM4, T267K); assay: isothermal titration calorimetry; conditions: 25 °C, 20 mM Tris-HCl pH 7.0, 100 mM NaCl; independent binding model
T3 construct: gene DR_B0099, pET28a, E. coli BL21(DE3); N-terminal His-tag cut with thrombin, GSHM left at N terminus; monomer, Mr 32 kDa; residues 100-110 GGGFLGGAQAQ
T3 sequence (Q9RZM4 entry or part of it T267K): as the sequence (Q9RZM4 entry or part of it E112A) above, with A112E, T267K counted along it
Description: as §1

[5] = target: T4, DrPARG (Deinococcus radiodurans, UniProt Q9RZM4, T267R); assay: isothermal titration calorimetry; conditions: 25 °C, 20 mM Tris-HCl pH 7.0, 100 mM NaCl; independent binding model
T4 construct: gene DR_B0099, pET28a, E. coli BL21(DE3); N-terminal His-tag cut with thrombin, GSHM left at N terminus; monomer, Mr 32 kDa; residues 100-110 GGGFLGGAQAQ
T4 sequence (Q9RZM4 entry or part of it T267R): as the sequence (Q9RZM4 entry or part of it E112A) above, with A112E, T267R counted along it
Description: as §1

Tm with ligand (apo 45.2) [1]: 46.5 °C
Kd [2]: 1780 ± 50 nM
Kd [3]: 2020 ± 70 nM
Kd [4]: 1980 ± 20 nM
Kd [5]: 3760 ± 470 nM
SMILES: Nc1ncnc2c1ncn2[C@@H]1O[C@H](COP(=O)(O)OP(=O)(O)OC[C@H]2OC(O)[C@H](O)[C@@H]2O)[C@@H](O)[C@H]1O (some centres unmarked) [ADP-ribose]
